According to patent US9945862B2, “Biomarkers for predicting and assessing responsiveness of thyroid and kidney cancer subjects to lenvatinib compounds” (Eisai R&D Management Co., Ltd., priority 2011, dated 2018):

How the values were obtained:
[1] = tested on: differentiated thyroid cancer patients; test: Multivariate prediction models of PFS combining mutations and blood biomarkers (Cox proportional hazards model, hazard threshold, log rank test); format: in vivo, human; conditions: pre-treatment
Experimental: All factors (i.e., mutations, thyroglobulin, cytokine, chemokine and angiogenic factors) were used as independent variables of interest, that is, as biomarker candidates. PFS was used as a dependent variable, that is, as one of the clinical outcomes, in this analysis. Firstly, all factors were screened according to p-values calculated by Cox proportional hazards model with single factor. Secondly, all combinations of the screened factors were tested by Cox proportional hazards model to find significant factors in all combinations of the factors. Combinations in which all factors were significant were chosen for further analysis. Hazard functions of the combinations of factors defined by their coefficients were obtained from this analysis. Each patient has his/her own hazard value for each model, so that patients can be assigned into two groups when a threshold of hazard is given for a model. After grouping patients, log rank test of progression free survival was performed to test difference of survival curves between two groups (low hazard and high hazard). The best threshold of hazard for each model of combination of factors was identified by sweeping threshold to calculate log rank test p-values and finding a threshold that minimized the smoothed curve constructed from the p-values, which was similar to the approach described in U. Abel, J. Berger and H. Wiebelt, “CRITLEVEL: An Exploratory Procedure for the Evaluation of Quantitative Prognostic Factors”, Methods Inf. Medicine, 23(3):154-6(1984). The best thresholds of the models divided patients into high and low hazard groups. Patients are predicted as longer PFS when their hazard value is lower than the threshold.

[2] = tested on: thyroid, kidney and endometrial cancers, as well as melanoma; conditions: phase I; cited from earlier work
[3] = tested on: differentiated thyroid cancer patients; test: Tumor shrinkage (percent change of sum of diameters of target lesions) in E7080-treated DTC patients; format: in vivo, human
Experimental: The period during which a patient takes E7080 was artificially divided into different Cycles for ease of evaluation and tracking. Patients received E7080 at a dose of 24 mg oral once daily in 28 day cycles. For analysis purposes, assessments of clinical outcomes were performed at the time of the 9 month and at 14 month minimum follow-up. For the E7080 Thyroid Cancer trial, each Cycle is 28 days (4 weeks) so Day 1-28 is cycle 1; Day 29 is Day 1 of Cycle 2; and Day 57 is Day 1 of Cycle 3. Blood samples were collected for pharmacokinetic (PK) analysis on Cycle 1 Days 1 and 8, Cycle 2 Day 1, and Cycle 3 Day 1. A total of 9 samples per patient were collected as follows: Cycle 1 Day 1: immediately prior to the dose of E7080, and at 0.5 and 2 hours following the first dose of E7080 (post-dose); Cycle 1 Day 8: immediately prior to the dose of E7080; Cycle 2 Day 1: immediately prior to the dose of E7080, 0.5 and 2 hours post-dose; Cycle 3 Day 1: immediately prior to the dose of E7080 and 2 hours post-dose. For analysis of progression free survival, PK parameter was used as a covariate in Cox proportional hazards model.
“Tumor shrinkage” (TS) means percent change of sum of diameters of target lesions, taking as reference the baseline sum diameters.
Also changes in thyroglobulin levels were associated with tumor shrinkage after completion of cycle 2 (56 days after treatment) (Speaman's rank correlation test, Table 8, middle).
Next, the factors associated with tumor shrinkage were investigated (Pearson's correlation coefficient test, Table 11).

thyroglobulin [4] = test: Serum thyroglobulin, chemiluminescent immunometric assay (IMMULITE 2000), pre- and post-treatment with E7080; format: in vivo, human
Experimental: The serum for the thyroglobulin assays was collected within 72 hours prior to Day 1 of all cycles. 24 mg of E7080 was administered orally, daily continuously in 28-day cycles. Serum samples from 58 patients were used for thyroglobulin measurements. 6 mL of blood was drawn into red top tubes and let to clot at room temperature for at least 30 min. Within 60 minutes of sample collection, the tubes were centrifuged for 15 minutes at 20-25° C. at 1000×g. The supernatant was drawn without disturbing the pellet, put into sample tubes with serum filter and shipped frozen to the central lab for testing on the day of collection. The level of thyroglobulin was detected by a solid-phase, chemiluminescent immunometric assay (IMMULITE 2000 Thyroglobulin Assay System, Siemens) following standard operating procedure. In brief, serum thyroglobulin was captured by beads coated with anti-thyroglobulin antibody and detected using anti-thyroglobulin antibody linked to alkaline phosphatase. The level of serum thyroglobulin was calculated from a standard curve generated with lyophilized thyroglobulin. Serum thyroglobulin was stable for up to 2 months when stored frozen for the assay. The sensitivity of this assay was 0.2 ng/ml. From 58 patient samples, 50 pre- and post-treatment blood samples at maximum were used for these analyses. Dramatic changes in thyroglobulin levels were observed 29 days after the start of treatment with E7080.

thyroglobulin [5] = test: as above; format: in vivo, human; conditions: 48 days (within 2 cycles) after treatment; decrease continued to cycle 8

COc1cc2nccc(Oc3ccc(NC(=O)NC4CC4)c(Cl)c3)c2cc1C(N)=O [E7080, 4-(3-chloro-4-(cyclopropylaminocarbonyl)aminophenoxy)-7-methoxy-6-quinolinecarboxamide]
HR (low vs high hazard group, PFS) ([1]; prediction model: ANG-2): 0.545 | HR (low vs high hazard group, PFS) ([1]; prediction model: IL13 + MIP1a): 1.00E−09 | HR (low vs high hazard group, PFS) ([1]; prediction model: IL13 + MIP1a + MIP1b): 0.121 | HR (low vs high hazard group, PFS) ([1]; prediction model: NRAS mutation + ANG-2 (log10(ANg2))): 0.115 | HR (low vs high hazard group, PFS) ([1]; prediction model: NRAS mutation + ANG-2 (log10(Ang290))): 0.085 | HR (low vs high hazard group, PFS) ([1]; prediction model: NRAS mutation + VEGFA + ANG-2 + MIP1b + sVEGFR3): 2.60E−10 | HR (low vs high hazard group, PFS) ([1]; prediction model: NRAS mutation + VEGFA + MIP1b): 0.097 | HR (low vs high hazard group, PFS) ([1]; prediction model: NRAS mutation + VEGFA + MIP1b + sVEGFR3): 0.054 | HR (low vs high hazard group, PFS) ([1]; prediction model: NRAS mutation, D(NRAS, MU)): 0.124 | HR (low vs high hazard group, PFS) ([1]; prediction model: VEGFA): 0.552 | HR (low vs high hazard group, PFS) ([1]; prediction model: VEGFA + ANG-2): 0.386 | HR (low vs high hazard group, PFS) ([1]; prediction model: VEGFA + ANG-2 + GCSF): 0.413 | HR (low vs high hazard group, PFS) ([1]; prediction model: mutation in any of BRAF, KRAS, NRAS + MIP1a): 0.086 | HR (low vs high hazard group, PFS) ([1]; prediction model: mutation in any of BRAF, KRAS, NRAS + VEGFA + MIP1a + MIP1b + IL-6): 1.90E−10 | HR (low vs high hazard group, PFS) ([1]; prediction model: mutation in any of KRAS, NRAS + ANG-2): 0.083 | HR (low vs high hazard group, PFS) ([1]; prediction model: mutation in any of KRAS, NRAS, D(KRASNRAS, MU)): 0.205 | Clinical response [2]: response to treatment was observed | % of tumor shrinkage (Median) ([3]; KRAS, NRAS (any of gene) mutation patients): −44.5% | % of tumor shrinkage (Median) ([3]; KRAS, NRAS wild type patients): −31.0% | % of tumor shrinkage (Median) ([3]; NRAS mutation patients): −45.5% | % of tumor shrinkage (Median) ([3]; NRAS wild type patients): −35.5% | Thyroglobulin level ratio (median), Other group (SD or PD) (thyroglobulin [4]; CYCLE2 DAY 1/CYCLE1 DAY 1): 0.288 | Thyroglobulin level ratio (median), PR group (thyroglobulin [4]; CYCLE2 DAY 1/CYCLE1 DAY 1): 0.195 | Thyroglobulin level ratio (median), Other group (SD or PD) (thyroglobulin [4]; CYCLE3 DAY 1/CYCLE1 DAY 1): 0.221 | Thyroglobulin level ratio (median), PR group (thyroglobulin [4]; CYCLE3 DAY 1/CYCLE1 DAY 1): 0.109 | Thyroglobulin level ratio (median), Other group (SD or PD) (thyroglobulin [4]; CYCLE4 DAY 1/CYCLE1 DAY 1): 0.227 | Thyroglobulin level ratio (median), PR group (thyroglobulin [4]; CYCLE4 DAY 1/CYCLE1 DAY 1): 0.079 | Thyroglobulin level ratio (median), Other group (SD or PD) (thyroglobulin [4]; CYCLE5 DAY 1/CYCLE1 DAY 1): 0.332 | Thyroglobulin level ratio (median), PR group (thyroglobulin [4]; CYCLE5 DAY 1/CYCLE1 DAY 1): 0.106 | Thyroglobulin level ratio (median), Other group (SD or PD) (thyroglobulin [4]; CYCLE6 DAY 1/CYCLE1 DAY 1): 0.198 | Thyroglobulin level ratio (median), PR group (thyroglobulin [4]; CYCLE6 DAY 1/CYCLE1 DAY 1): 0.078 | Change in serum thyroglobulin levels after treatment (thyroglobulin [5]): significantly decreased
